Measured values: publication PMC8706970, “A Novel C1q Domain-Containing Protein Isolated from the Mollusk Modiolus kurilensis Recognizing Glycans Enriched with Acidic Galactans and Mannans” (Marine Drugs, 2021)

Tested on: MkC1qDC
Experiment: hemagglutination inhibition, fixed human group […] erythrocytes, two-fold dilutions
Assay type: cell-based, Modiolus kurilensis
Conditions: Ca2+-dependent lectin activity, 0.1 mg/mL protein, titer decline by one two-fold dilution, also given as 1.16 mg/mL

SMILES: OC[C@H]1OC(O)C[C@@H](O)[C@H]1O (stereo partly drawn) [2-deoxy-D-galactose]
- IC50 (also printed as 2.46 mg/mL): 15 mM

SMILES: OC[C@H]1O[C@H](O[C@@H]2C(O)O[C@H](CO)[C@@H](O)[C@@H]2O)[C@@H](O)[C@@H](O)[C@@H]1O (stereo partly drawn) [2α- mannobiose]
- IC50 (also printed as 10.26 mg/mL): 30 mM

SMILES: OC[C@H]1OC(O)[C@H](O)[C@@H](O)[C@H]1O (stereo partly drawn) [D-galactose]
- IC50 (also printed as 5.40 mg/mL): 30 mM

SMILES: O=C(O)[C@H]1OC(O)[C@H](O)[C@@H](O)[C@H]1O (stereo partly drawn) [D-galacturonic acid]
- IC50 (also printed as 1.46 mg/mL): 7.5 mM

SMILES: O=C(O)[C@H]1OC(O)[C@H](O)[C@@H](O)[C@@H]1O (stereo partly drawn) [D-glucuronic acid]
- IC50 (also printed as 1.46 mg/mL): 7.5 mM

SMILES: OC[C@H]1O[C@@H](O[C@H]2[C@H](O)[C@@H](O)C(O)O[C@@H]2CO)[C@H](O)[C@@H](O)[C@H]1O (stereo partly drawn) [D-lactose]
- IC50 (also printed as 5.13 mg/mL): 15 mM

SMILES: OC[C@@H]1OC(O)[C@@H](O)[C@@H](O)[C@@H]1O (stereo partly drawn) [L-gulose]
- IC50 (also printed as 1.35 mg/mL): 7.5 mM

SMILES: CC(=O)N[C@H]1[C@H]([C@H](O)[C@H](O)CO)OC(O)(C(=O)O)C[C@@H]1O (some centres unmarked) [N-acetylneuraminic (sialic) acid]
- IC50: 3.75 mM
